Results reported in PMC5840523, “Assessment of a pretomanid analogue library for African trypanosomiasis: Hit-to-lead studies on 6-substituted 2-nitro-6,7-dihydro-5H-imidazo[2,1-b][1,3]thiazine 8-oxides” (Bioorganic & Medicinal Chemistry Letters, 2018).
≈ marks a conversion by molar mass, not a printed value. Like-named read-outs stand apart in the source and are kept apart here.

Key:
[1] = test system: T. b. brucei 427; assay: T. b. brucei 427 growth inhibition (Scynexis); type: cell-based, Trypanosoma brucei brucei; settings: for Selectivity Index: L929 vs T. b. brucei; for IC50: Trypanosoma brucei, growth inhibition of T. b. brucei 427, mean ± SD
[2] = test system: Leishmania infantum; assay: L. infantum growth inhibition (University of Antwerp); type: cell-based; settings: mean of 2 to 5 determinations
[3] = test system: human lung fibroblasts (MRC-5 cells); assay: Cytotoxicity toward MRC-5 cells (University of Antwerp); type: cell-based; settings: Homo sapiens, MRC5, cytotoxicity toward human lung fibroblasts
[4] = Mouse liver S9 stability; type: in vitro ADME; settings: CD-1, mouse, mouse liver S9 subcellular fraction, half-life in mouse liver S9 fraction; read-out: Mouse S9 t1/2
[5] = test system: T. b. rhodesiense; assay: T. b. rhodesiense growth inhibition (University of Antwerp); type: cell-based, Trypanosoma brucei rhodesiense; settings: mean of 2 to 5 determinations, read-out: IC50 T. b. rhod
[6] = Kinetic aqueous solubility in pH 7.4 PBS; type: physicochemical
From the text: Table 1 Inhibitory potency, metabolic stability, aqueous solubility, and MDCK-MDR1 cell permeability for 15 screening hits against T. b. brucei. | column: Solubility ^c / (µg/mL)

[7] = test system: T. b. brucei 427; assay: T. b. brucei growth inhibition (University of Antwerp); type: cell-based, Trypanosoma brucei brucei; settings: T. b. brucei 427, mean of 2 to 5 determinations, read-out: IC50 T. b. bruc
[8] = in vitro; settings: dog, MDCK-MDR1, Permeability Papp
[9] = Mouse pharmacokinetics (plasma, whole blood, brain); type: in vivo, male CD-1 mice; settings: male, CD-1, mouse; for bioavailability: po; for Vd: read-out: Vdss; for half-life: read-out: t1/2 (converted)
Method: In order to determine the suitability of the more permeable hits for in vivo efficacy studies, we first measured their aqueous solubilities, and their tendencies to metabolise, following a 1 h incubation with CD-1 mouse liver S9 subcellular fractions.[14] […] This led us to probe their in vivo pharmacokinetic (PK) profiles in mice, examining concentration levels in plasma, whole blood and brain tissue following both intravenous and oral administration (Table 2; for further experimental details, see the Supporting Information). […]
Mouse Pharmacokinetics. The in-life portion of PK testing was carried out by ViviSource Laboratories, Inc., Mass achusetts, USA, and PK samples were anal ysed by Sc ynexis, Inc.
Test compounds (9, 12, 17, and 19) w er e each administered as single doses to groups of 10 male CD-1 mice by bolus intravenous injection or oral gavage. Intravenous dosing (at a nominal dose of 2 mg/kg) emplo yed a solution vehicle comprising either 20% EtOH, 20% propylene gl ycol, and 30% PEG -400 in normal saline (for powders 9, 17, and 19) or 0.5% (hydrox yprop yl)meth ylcellulose, 0.4% Tween 80, 0.5% benz yl alcohol, and 20% DMSO i n deionised water (for oil 12). […]
in 0.5% methylcellulose, 0.08% Tween 80 in water ( ex cept fo r oil 12, where the formulation additionally contained 20% DMSO). […]

[10] = test system: L929 mouse fibroblasts; assay: Cytotoxicity toward L929 mouse fibroblasts (Scynexis); type: cell-based
[11] = test system: Trypanosoma cruzi; assay: T. cruzi growth inhibition (University of Antwerp); type: cell-based; settings: mean of 2 to 5 determinations
[12] = brain, from dose normalised AUClast values, read-out: F (oral bioavailability)
[13] = over the three sampling sites (plasma, whole blood, brain), read-out: oral bioavailability
[14] = whole blood, from dose normalised AUClast values, read-out: F (oral bioavailability)
[15] = brain, intravenous, corrected doses 0.5, 1.1, 2.9, 2.0 mg/kg for 9, 12, 17, 19
[16] = brain, oral, corrected doses 62, 50, 78, 49 mg/kg for 9, 12, 17, 19
[17] = plasma, intravenous, corrected doses 0.5, 1.1, 2.9, 2.0 mg/kg for 9, 12, 17, 19
[18] = plasma, oral, corrected doses 62, 50, 78, 49 mg/kg for 9, 12, 17, 19
[19] = whole blood, intravenous, corrected doses 0.5, 1.1, 2.9, 2.0 mg/kg for 9, 12, 17, 19
[20] = whole blood, oral, corrected doses 62, 50, 78, 49 mg/kg for 9, 12, 17, 19

SMILES	Selectivity Index [1]	IC50 [1] [µg/mL]	IC50 [3] [nM]	half-life [4] [h]	solubility [6] [µg/mL]	Papp at 1 h, 3 µM [8] [×10⁻⁶ cm/s]	bioavailability [9, 12] [%]	bioavailability [9, 13] [%]	bioavailability [9, 14] [%]	AUC(0-t) [9, 15] [ng·h/mL]	clearance [9, 15] [mL/min/kg]	Vd [9, 15] [L/kg]	half-life [9, 15] [h]	AUC(0-t) [9, 16] [ng·h/mL]	Cmax [9, 16] [ng/mL]	Tmax [9, 16] [h]	half-life [9, 16] [h]	AUC(0-t) [9, 17] [ng·h/mL]	clearance [9, 17] [mL/min/kg]	Vd [9, 17] [L/kg]	other results
O=[N+]([O-])c1cn2c(n1)[S+]([O-])CC(OCc1ccc(OCc3ccccc3)cc1)C2 (stereo not drawn) [Compound 9]	>667	0.015 ± 0.005 (≈ 0.0363 µM)	64000	2.88	5.4 (≈ 13.1 µM)	77.1	0.8	< 1.5	0.8	304	25	1.2	1.6	290	60	2	3.2	505	16.2	0.59	IC50 ([2]; Leishmania infantum): 3400 nM; IC50 ([5]; Trypanosoma brucei, RHODESIENSE): 27 nM; IC50 ([7]; Trypanosoma brucei): 30 nM; bioavailability ([9]; 0.5 mg/kg, plasma, from dose normalised AUClast values, read-out: F (oral bioavailability)): 1.4%; half-life [9, 17]: 0.43 h; AUC(0-t) [9, 18]: 869 ng·h/mL; Cmax [9, 18]: 200 ng/mL; Tmax [9, 18]: 2 h; half-life [9, 18]: 3.7 h; AUC(0-t) [9, 19]: 489 ng·h/mL; clearance [9, 19]: 14.5 mL/min/kg; Vd [9, 19]: 0.33 L/kg; half-life [9, 19]: 0.42 h; AUC(0-t) [9, 20]: 494 ng·h/mL; Cmax [9, 20]: 110 ng/mL; Tmax [9, 20]: 2 h; half-life [9, 20]: 5.3 h; IC50 [10]: > 10 µg/mL; IC50 ([11]; Trypanosoma cruzi): 120 nM
O=[N+]([O-])c1cn2c(n1)[S+]([O-])CC(OCc1ccc(OC(F)(F)F)cc1)C2 (stereo not drawn) [Compound 12]	>63	0.16 ± 0.07 (≈ 0.409 µM)	60000	> 5.83	39 (≈ 99.7 µM)	79.8	55	52 to 55	52	2850	6.67	1.3	2.3	71200	14000	4	6.9	2090	8.67	1.6	IC50 [2]: 16000 nM; IC50 [5]: 250 nM; IC50 [7]: 270 nM; bioavailability ([9]; plasma, from dose normalised AUClast values, read-out: F (oral bioavailability)): 55%; half-life [9, 17]: 2.5 h; AUC(0-t) [9, 18]: 51900 ng·h/mL; Cmax [9, 18]: 9300 ng/mL; Tmax [9, 18]: 4 h; half-life [9, 18]: 6.9 h; AUC(0-t) [9, 19]: 2700 ng·h/mL; clearance [9, 19]: 6.5 mL/min/kg; Vd [9, 19]: 1.7 L/kg; half-life [9, 19]: 9.3 h; AUC(0-t) [9, 20]: 63500 ng·h/mL; Cmax [9, 20]: 8600 ng/mL; Tmax [9, 20]: 4 h; half-life [9, 20]: 5.8 h; IC50 [10]: > 10 µg/mL; IC50 [11]: 1500 nM
